Laboratory results from ChEMBL document CHEMBL4351004, “New 3-tetrazolyl-β-carbolines and β-carboline-3-carboxylates with anti-cancer activity” (2019).

Columns and labels:
Type in all cases: functional
[1] = Antiproliferative activity against human UACC61 cells assessed as growth inhibition after 48 hrs by sulforhodamine B assay
MCF7 = experiment: Antiproliferative activity against human MCF7 cells assessed as growth inhibition after 48 hrs by sulforhodamine B assay; conditions: MCF7, 48 h
PC-3 = experiment: Antiproliferative activity against human PC3 cells assessed as growth inhibition after 48 hrs by sulforhodamine B assay; conditions: PC-3, 48 h
NCI/ADR-RES = experiment: Antiproliferative activity against human NCI-ADR-RES cells assessed as growth inhibition after 48 hrs by sulforhodamine B assay
HT-29 = experiment: Antiproliferative activity against human HT-29 cells assessed as growth inhibition after 48 hrs by sulforhodamine B assay; conditions: HT-29, 48 h
NCI-H460 = experiment: Antiproliferative activity against human NCI-H460 cells assessed as growth inhibition after 48 hrs by sulforhodamine B assay; conditions: NCI-H460, 48 h
786-0 = experiment: Antiproliferative activity against human 786-0 cells assessed as growth inhibition after 48 hrs by sulforhodamine B assay; conditions: 786-0, 48 h
K562 = experiment: Antiproliferative activity against human K562 cells assessed as growth inhibition after 48 hrs by sulforhodamine B assay; conditions: K562, 48 h
OVCAR-3 = experiment: Antiproliferative activity against human OVCAR3 cells assessed as growth inhibition after 48 hrs by sulforhodamine B assay; conditions: OVCAR-3, 48 h
U-251 = experiment: Antiproliferative activity against human U251 cells assessed as growth inhibition after 48 hrs by sulforhodamine B assay; conditions: U-251, 48 h

Row | Structure (SMILES) | GI50 [1] [µM] | GI50 (MCF7) [µM] | GI50 (PC-3) [µM] | GI50 (NCI/ADR-RES) [µM] | GI50 (HT-29) [µM] | GI50 (NCI-H460) [µM] | GI50 (786-0) [µM] | GI50 (K562) [µM] | GI50 (OVCAR-3) [µM] | GI50 (U-251) [µM]
1 | COC(=O)c1cc2c([nH]c3ccccc32)c(-c2ccccc2)n1 | 5.45 | > 100 | > 100 | > 100 | > 100 | > 100 | > 100 | > 100 | > 100 | 
2 | COC(=O)c1cc2c([nH]c3ccccc32)c(-c2ccccc2Cl)n1 | 5.76 | 36.4 | 22.3 | 27.6 | 25.3 | 26.8 | 42.4 | 13.5 | 21.6 | 
3 | CCOC(=O)c1cc2c([nH]c3ccc(OC)cc32)c(-c2ccc(N(C)C)cc2)n1 | 0.28 | > 100 | 7.74 | 4.29 | > 100 | 12.7 | 1.4 | > 100 | > 100 | 0.95
4 | CCOC(=O)c1cc2c([nH]c3ccc(OC)cc32)c(-c2ccc(O)cc2)n1 | > 100 | 6.57 | 3.28 | 6.54 | 7.74 | 6.95 | 7.51 | 4.36 | 0.66 | 7.26
5 | COc1ccc(-c2nc(-c3nnnn3Cc3ccccc3)cc3c2[nH]c2ccccc23)cc1 | 88.1 | 1.32 | 5.73 | 2.7 | 18.3 | 1.59 | 2.17 | 7.14 | 1.62 | 3.82
6 | COC(=O)c1cc2c([nH]c3ccccc32)c(-c2ccc(OC)cc2)n1 | 2.61 | 52.7 | 10.2 | 1.11 | 24.8 | 0.38 | 32.7 | 0.04 | 39.4 | 
7 | CCOC(=O)c1cc2c([nH]c3ccc(OC)cc32)c(-c2ccccc2)n1 | > 100 | 79.6 | > 100 | > 100 | > 100 | > 100 | > 100 | > 100 | > 100 | > 100
8 | CCOC(=O)c1cc2c([nH]c3ccc(C)cc32)c(-c2ccc(OC)cc2)n1 | 23.3 | 32.2 | > 100 | 41.6 | 80.1 | 11.6 | 4.27 | 25.1 | 0.61 | 7.07
9 | CCOC(=O)c1cc2c([nH]c3ccc(OC)cc32)c(-c2cccc([N+](=O)[O-])c2)n1 | 19.7 | > 100 | > 100 | > 100 | > 100 | > 100 | > 100 | > 100 | > 100 | > 100
10 | CCOC(=O)c1cc2c([nH]c3ccc(OC)cc32)c(-c2ccccc2Cl)n1 | 7.71 | > 100 | > 100 | > 100 | > 100 | 65.6 | 12.2 | > 100 | > 100 | 22.1
11 | CCOC(=O)c1cc2c([nH]c3ccc(OC)cc32)c(-c2ccc(OC)cc2)n1 | > 100 | > 100 | > 100 | > 100 | > 100 | 74.8 | 20.9 | > 100 | > 100 | 70.8
12 | Fc1ccc(-c2nc(-c3nnn[nH]3)cc3c2[nH]c2ccccc23)cc1 | 63.3 | 10.1 | 71.8 | 36.6 | 25.6 | 14.8 | 64.5 | 10.7 | 0.27 | 8.17
13 | c1ccc(Cn2nnnc2-c2cc3c([nH]c4ccccc43)c(-c3ccccc3)n2)cc1 | 37 | 4.4 | > 100 | 71 | > 100 | 31.9 | 70.6 | 27.4 | > 100 | 63.5
14 | Fc1ccc(-c2nc(-c3nnnn3Cc3ccccc3)cc3c2[nH]c2ccccc23)cc1 | > 100 | 1.04 | 6.11 | 2.07 | 6.51 | 20.2 | 0.69 | 0.69 | 0.57 | 1.38
15 | COC(=O)c1cc2c([nH]c3ccccc32)c(-c2cccc([N+](=O)[O-])c2)n1 | 7.02 | > 100 | > 100 | > 100 | > 100 | > 100 | 31.7 | 3.05 | > 100 | 
16 | COC(=O)c1cc2c([nH]c3ccccc32)c(-c2ccc(N(C)C)cc2)n1 | 3.61 | 36.8 | 9.56 | 11.6 | 34 | 15.3 | 20.4 | 21.8 | 28.4 | 
17 | COC(=O)c1cc2c([nH]c3ccccc32)c(-c2ccc(O)cc2)n1 | 12 | 27.5 | 20.7 | 25.7 | 25.1 | 28.5 | 29.5 | > 100 | 21.1 | 
18 | CCOC(=O)c1cc2c([nH]c3ccc(C)cc32)c(-c2ccccc2)n1 | 28.2 | 5.08 | 20.6 | 2.66 | 7.14 | 6.96 | 10.8 | 1.24 | 0.6 | 7.44
19 | COc1cccc2c1C(=O)c1c(O)c3c(c(O)c1C2=O)C[C@@](O)(C(=O)CO)C[C@@H]3O[C@H]1C[C@H](N)[C@H](O)[C@H](C)O1 [DOXORUBICIN] | 0.047 | 0.073 | 0.74 | 1.44 | 2.58 | 0.37 | 0.15 | 1.11 | 0.0087 | 0.21
